Here are results for 8 compounds from patent US10744119B1, “Inhibitors of the malarial GST” (University of Puerto Rico, priority 2014, dated 2020).

What is called EC50 is the concentration at which the effect is half-maximal. What is called inhibition is the change of the read-out against control, counted positive when it falls. A low value points to a weak effect.

The subject of assay [1] is P. berghei blood stages. Kind of assay: Plasmodium berghei in vitro drug luminescence (ITDL) assay. Type of assay: cell-based. The settings on record: read-out: EC50, growth inhibition of P. berghei blood stages. The procedure:
The compounds were received as 10 mM stocks dissolved in 100% DMSO. These stocks were stored at −20° C. The DMSO stock compounds were diluted in complete culture medium (RPMI1640 medium supplemented with 20% FBS from Gibco® heat-inactivated and Neomycin stock solution of 10,000 IU/mL from Sigma-Aldrich®) for use in the Plasmodium berghei in vitro drug luminescence assay. For initial testing, the compounds were used at the following concentration: 0.01 μM, 0.1 μM, 1 μM and 10 μM; in triplicate point to determine the inhibition curve for each compound.
This assay measures the in vitro development of P. berghei ring stage into mature schizonts in the presence of inhibitors/drugs. The Swiss-CD1 female mice were infected with the GFP-luc parasite line. The GFP-luc parasite line allows determination of the luciferase activity in the cultured mature schizonts, which is directly proportional to the number of schizonts. When the parasitemia reaches 1-3%, the RBCs were collected from the infected mice and used to perform the assay. The susceptibility of blood stages parasites was determined in the presence of standard GST inhibitors and the TCAMS compounds identified from the VLS. […] The standard GST inhibitors were weighed and dissolved in 100% DMSO to prepare the stock solution. Dilutions of the standard GST inhibitors were freshly prepared in complete culture medium (RPMI1640 medium supplemented with 20% FBS from Gibco® heat-inactivated and Neomycin stock solution of 10,000 IU/mL from Sigma-Aldrich®) for each assay. The dilutions of the inhibitors were added to the wells in triplicates, 50 μL per well. Chloroquine diphosphate salt from Sigma-Aldrich® was used as a control (at a concentration of 100 nM) for complete inhibition of blood stage development. Further, infected blood was collected from one mouse by cardiac puncture under anesthesia early in the morning (between 9:00-10:[…]). The blood was added to a 50 mL tube containing 5 mL complete culture medium supplemented with 300 μL heparin stock solution (25,000 U/mL). The blood was centrifuged for 8 min at 450×g and the supernatant was removed. The blood was resuspended in a complete culture medium comprising a concentration of 2% (v/v). In the next step, 50 μL of the blood suspension was added in each well containing the inhibitors dilutions. The 96-well black culture plates containing the infected blood solution were placed into a candle jar. The candle jar was carefully flushed with a gas mixture of 5% CO2, 5% O2, 90% N2 using a 0.22 μm filter unit connected to the gas hose for 2 minutes. The lid was tightly closed immediately after gassing. The infected blood suspension was incubated at 37° C. with continuous agitation (enough to keep the cells suspended) for 24 hours allowing the ring stages to develop into the mature schizonts. After the culture period, the schizonts were evaluated by microscopic examination of Diff Quick-stained thin blood smears. The 96-well plate was centrifuged at 1,000×g for 5 minutes. The supernatant was removed using a syringe needle on those sides of the wells without red blood cell after spinning. The luciferase activity was measured in cultured mature schizonts using the Luciferase Assay System Kit from Promega (Cat. No. E1500). The RBCs were lysed by adding 50 μL of 1× cell culture lysis reagent into each well. The plate was shaken for 5 minutes to assure complete lysis. Afterward, 50 μL of the luciferase assay reagent was added. The luminescence was measured using the SpectraMax® M3 Microplate Reader (Molecular Devices). […] The data was analyzed and used to generate standard in vitro inhibition curves, and EC50 values of each compound were calculated. Preliminary data analyses were performed using Microsoft Excel and the effective concentration (50% of the maximal inhibition; EC50 values) were calculated using GraphPad Prism software (Graph-Pad software, Inc., US, Mac Version 6).

A further assay addresses P. berghei GST (pbGST) (Plasmodium berghei, UniProt A0A509AJX5). The experiment in a line: Inhibition of GST activity (CDNB/GSH, 340 nm) in P. berghei protein extracts. The following applies: for inhibitory activity on pbGST: 1, 10 and 50 μM, duplicate (n=2), more marked effect at 50 μM. The class given is biochemical. The method, then: Glutathione S-transferase Activity in Blood Stage Parasites: The parasite extracts were prepared as the method described in the Protein for Enzymatic Activity. The enzymatic activity was determined spectroscopically using the chromogenic substrate 1-chloro-2,4-dinitrobenzene (CDNB) from Sigma-Aldrich®. The GST activity was assayed at 25° C. in P. berghei protein extracts by monitoring the increase in absorbance at 340 nm on the basis of the extinction coefficient for the product S-(2,4-dinitrophenyl) glutathione (ε340 nm=9.6 mM^−1 cm^−1). The absorbance was measured in a 96-well plate (UV flat bottom Microtiter®, from Thermo Scientific) using the SpectraMax® M3 Microplate Reader (Molecular Devices). The parasite extract (0.65 mg/mL) and 1 mM CDNB were added to a 100 mM potassium phosphate (pH 6.5) buffer. The reaction was started by adding 1 mM GSH. To detect any residual GST activity associated with the parasite extract, blank reactions as controls (no GSH) were included. The Enzyme activity is reported as units (micromole of GSH/min)/mg of protein. This assay was standardized using the human placenta GST from Sigma-Aldrich® (Cat No. G8642) and used as positive control.
The compounds stock solutions were prepared in 100% DMSO. […] The half maximal inhibitory concentration (IC50) values were calculated using the non-linear regression function for sigmoidal dose-response (variable slope). Inhibition curves of pbGST was done in two independent experiments with one replicate each (n=2) whereas the inhibition curves of hGST was determined in three independent experiments in triplicate (n=9). […] GraphPad Prism software (Graph-Pad software, Inc., US, Mac Version 6) was used to make the graph and to perform the statistical analyses.
The GSK TCAMS compounds dilutions were prepared in DMSO and the final concentration of DMSO in the assay was 0.5%. Inhibition of pbGST by the GSK TCAMS compounds were determined by adding variable concentration of compounds (1, 10 and 50 μM) with a fixed P. berghei protein extracts concentration (0.65 mg/mL) in a total volume of 200 μL containing 1 mM CDNB and 100 mM potassium phosphate buffer (pH 6.5) at 25° C. The reaction was started by adding 1 mM GSH and activity was measured spectroscopically at 340 nm absorbance. The data obtained by varying compound concentration was analyzed using a column bar graph. Inhibition of pbGST by the GSK TCAMS compounds was done in duplicate. One GSK TCAMS compound, TCMDC-124132, was analyzed against the hGST in two independent experiments in triplicate (n=6). A statistical analysis was done using the GraphPad Prism software (Graph-Pad software, Inc., US, Mac Version 6). […]

Assay [2] deals with T1, human placenta GST (hGST) (Homo sapiens, UniProt P09211).
T1 construct: the human placenta GST from Sigma-Aldrich® (Cat No. G8642); purchased Sigma-Aldrich G8642; host or cells: human placenta (tissue-derived)
The experiment in a line: Inhibition of GST activity (CDNB/GSH, 340 nm) of human placenta GST. Type of assay: biochemical. The procedure: Glutathione S-transferase Activity in Blood Stage Parasites: The parasite extracts were prepared as the method described in the Protein for Enzymatic Activity. The enzymatic activity was determined spectroscopically using the chromogenic substrate 1-chloro-2,4-dinitrobenzene (CDNB) from Sigma-Aldrich®. The GST activity was assayed at 25° C. in P. berghei protein extracts by monitoring the increase in absorbance at 340 nm on the basis of the extinction coefficient for the product S-(2,4-dinitrophenyl) glutathione (ε340 nm=9.6 mM^−1 cm^−1). The absorbance was measured in a 96-well plate (UV flat bottom Microtiter®, from Thermo Scientific) using the SpectraMax® M3 Microplate Reader (Molecular Devices). […]
The compounds stock solutions were prepared in 100% DMSO. […] The half maximal inhibitory concentration (IC50) values were calculated using the non-linear regression function for sigmoidal dose-response (variable slope). Inhibition curves of pbGST was done in two independent experiments with one replicate each (n=2) whereas the inhibition curves of hGST was determined in three independent experiments in triplicate (n=9). […]
The GSK TCAMS compounds dilutions were prepared in DMSO and the final concentration of DMSO in the assay was 0.5%. […] The reaction was started by adding 1 mM GSH and activity was measured spectroscopically at 340 nm absorbance. […]

Assay [3] deals with P. berghei blood stages. The settings on record: read-out: EC50, published results; published value; cited from earlier work.
Setting [4] is: ring stage to mature schizont development, 24 hours, luciferase readout, three independent experiments.

Each structure is given as a SMILES string. Read-outs that look alike come from different tables or passages of the source.

Chain of P. berghei GST (pbGST) (A0A509AJX5 entry or part of it): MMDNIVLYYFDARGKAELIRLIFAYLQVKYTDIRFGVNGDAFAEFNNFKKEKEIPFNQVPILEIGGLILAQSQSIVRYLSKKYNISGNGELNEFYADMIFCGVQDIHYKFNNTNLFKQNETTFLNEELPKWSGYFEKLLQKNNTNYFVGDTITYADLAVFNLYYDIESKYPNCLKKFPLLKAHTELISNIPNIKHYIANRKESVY
T1 sequence (P09211 2-210 limits assumed): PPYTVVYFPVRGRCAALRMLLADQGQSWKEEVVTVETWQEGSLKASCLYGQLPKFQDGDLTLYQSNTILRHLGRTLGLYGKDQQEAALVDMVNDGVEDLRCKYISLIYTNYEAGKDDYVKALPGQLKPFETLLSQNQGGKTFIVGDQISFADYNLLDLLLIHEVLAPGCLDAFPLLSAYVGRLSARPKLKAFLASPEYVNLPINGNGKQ

For `C=C(CC)C(=O)c1ccc(OCC(=O)O)c(Cl)c1Cl` [ethacrynic acid, reference compound], in the assay on P. berghei blood stages [1] (Plasmodium berghei, ring stage to mature schizont development, 24 hours, luciferase readout, three independent experiments), the EC50 was 14.7 µM. Regarding `COc1cc(/C=C/C(=O)CC(=O)/C=C/c2ccc(O)c(OC)c2)ccc1O` [curcumin, reference compound], the EC50 in the assay with P. berghei blood stages [1] (Plasmodium berghei, 24 h) turned out to be 15 µM. Turning to `COc1ccc2nccc([C@@H](O)CN3CCC(NC(=O)c4cc5c(F)cc(F)cc5[nH]4)CC3)c2n1` [Compound 6], the “inhibitory activity on pbGST” value against P. berghei GST (pbGST) is “No inhibitory activity”. For the same compound, the 50% effective concentration (EC50) with P. berghei blood stages [1] (setting [4]) was 1.48 µM. `c1ccc2[nH]c(CN(Cc3nc4ccccc4[nH]3)Cc3nc4ccccc4[nH]3)nc2c1` [Compound 8]: on P. berghei GST (pbGST), the “inhibitory activity on pbGST” value was “tendency of inhibition”. In the assay with P. berghei blood stages [1] (setting [4]), the EC50 came out at 1.15 µM. Moreover, the “inhibitory activity on human placenta GST” value in assay [2] (at 50 μM and 100 μM, statistical difference at 100 μM, n=6) is recorded as “tendency of inhibition”. On to `O=C1Nc2cccc3c2C1(CCCCN1CCC(c2cc4ccncc4[nH]2)CC1)CCC3` (centres unmarked) [TCMDC-141151/TCMDC-141221], for which the “inhibitory activity on pbGST” value against P. berghei GST (pbGST) was “No inhibitory activity”. Besides, in the assay with P. berghei blood stages [1] (setting [4]), the EC50 was found to be 1.04 µM. Regarding `Oc1ccc(CCNc2nc(NCc3ccccc3-c3ccc(C(F)(F)F)cc3)nc(N3CCNCC3)n2)cc1` [Compound 12], the EC50 in the assay on P. berghei blood stages [1] (setting [4]) stood at 3.03 µM. As to `CCCCCCSC[C@H](NC(=O)CC[C@H](N)C(=O)O)C(=O)NCC(=O)O` [S-hexylglutathione, reference compound], the inhibition at 50 µM (on P. berghei GST (pbGST) (50 μM compound); in assay [2] (50 μM compound)) was 50% in each case. Besides, in the assay on P. berghei blood stages [1] (Plasmodium berghei, 24 h), the concentration for a half-maximal effect (EC50) amounted to 6.86 µM. In the case of `CCN(CC)CCCC(C)Nc1ccnc2cc(Cl)ccc12` (centres unmarked) [Chloroquine], in the assay on P. berghei blood stages [3], the EC50 is 20 nM.
